From patent US20170122958A1, “Enzymes Functional Probes” (University of Dundee, priority 2013, published 2017)

How the values were obtained:
Assay type in all cases: binding
[1] = molecular target: Brd2(1) Leu110-Ile (Homo sapiens, UniProt P25440, L110I); assay: DSF thermal shift; parameters: Plasmids of the eight single BET bromodomain constructs Brd2(1), Brd2(2), Brd3(1), Brd3(2); His6 (N); made in house; host or cells: E. coli BL21(DE3); conditions: mutant
[2] = molecular target: T1, Brd3(1)*(Leu070-Ala) (Homo sapiens, UniProt Q15059, L70A); assay: ITC reverse titration of protein into compound; conditions: for Selectivity factor Kd WT/Kd Leu/Ala: 30° C.
T1 construct: Plasmids of the eight single BET bromodomain constructs Brd2(1), Brd2(2), Brd3(1), Brd3(2), Brd4(1), Brd4(2), Brdt(1) and Brdt(2); His6 (N); made in house; host or cells: E. coli BL21(DE3)
Experimental: (§1) Results obtained were very promising, showing small shifts from 1.2° C. to a maximum of 2.6° C. for all the eight BET wild types and shifts from 5.4° C. to 13.4° C. for all the leucine to alanine mutants.
(§2) For all mutants, protein was titrated at a concentration between 150-200 μM into a solution of the compound at a concentration of 15-20 μM. In the case of the wild types, protein was titrated at a concentration of 350-400 μM into a solution of the compound between 15-20 μM. FIG. 11 is an illustrative example of the curves obtained for the Brd3(1) bromodomain construct and its respective leucine to alanine mutant titrated into compound 11. We can easily observe a hyperbolic shape for the titration of wild type Brd3(1) into compound 11, corresponding to a low affinity interaction, while for Brd3(1)*(Leu070-Ala) we can easily observe a sharp sigmoidal behaviour corresponding to a high affinity interaction. Furthermore, there is a clear difference in the ΔH produced by each interaction. (ΔH=−22 kcal/mol vs. mutant compared to −7 kcal/mol vs. wild type).
(§3) ITC experiments were carried out on a ITC200 instrument from MicroCal™ Experiments were conducted at 3 different temperatures 15° C., 25° C. and 30° C., while stirring at 1000 rpm. Buffers of proteins, peptide and compounds were matched to 20 mM HEPES pH 7.5 at 25° C. and 100 mM NaCl. Frozen protein was buffer exchanged as described for the DSF experiments. Each titration comprised 1 initial injection of 0.4 μl lasting 0.8 s, followed by 19 injections of 2 μl lasting 4 s each at 2 min intervals. The initial injection was discarded during data analysis. Standard and reverse titrations were conducted depending on the binding partners.
(§4) Reverse titrations were conducted to test the binding of the known ligands and the novel chemical probes to the wild types and the mutants. Experiments were carried out either at 25° C. or 30° C. For strong binders, a concentration of 150-200 μM of the protein was injected into a solution of 15-20 μM compound. […] In cases where the compound was solubilized in dimethyl sulfoxide, DMSO concentration was adjusted to 1% both in the syringe and in the cell.
(§5) All the data was fitted to a single binding site model using the Microcal LLC ITC200 Origin software provided by the manufacturer to yield enthalpies of binding (ΔH) and binding constants (Kas). Further thermodynamic parameters were calculated from these values (changes in entropy ΔS, changes in free energy AG and dissociation constants (Kds)).

[3] = molecular target: T2, brd3(2)L344A (Homo sapiens, UniProt Q15059, L345A); assay: ITC reverse titration of protein into compound; conditions: 30° C.
T2 construct: Plasmids of the eight single BET bromodomain constructs Brd2(1), Brd2(2), Brd3(1), Brd3(2), Brd4(1), Brd4(2), Brdt(1) and Brdt(2); His6 (N); made in house; host or cells: E. coli BL21(DE3)
Experimental: as §1, §2, §3, §4, §5

[4] = molecular target: T3, brdt(2)L306A (Homo sapiens, UniProt Q58F21, L306A); assay: ITC reverse titration of protein into compound; conditions: 30° C.
T3 construct: Plasmids of the eight single BET bromodomain constructs Brd2(1), Brd2(2), Brd3(1), Brd3(2), Brd4(1), Brd4(2), Brdt(1) and Brdt(2); His6 (N); made in house; host or cells: E. coli BL21(DE3)
Experimental: as §1, §2, §3, §4, §5

[5] = molecular target: T4, brd4(1)L094A (Homo sapiens, UniProt O60885, L94A); assay: ITC reverse titration of protein into compound; conditions: 30° C.
T4 construct: Plasmids of the eight single BET bromodomain constructs Brd2(1), Brd2(2), Brd3(1), Brd3(2), Brd4(1), Brd4(2), Brdt(1) and Brdt(2); His6 (N); made in house; host or cells: E. coli BL21(DE3)
Experimental: as §1, §2, §3, §4, §5

T1 sequence (Q15059 34-140 L70A): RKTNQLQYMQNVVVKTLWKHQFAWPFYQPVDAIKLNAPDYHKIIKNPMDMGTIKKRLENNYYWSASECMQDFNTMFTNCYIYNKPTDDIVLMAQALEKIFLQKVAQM
T2 sequence (Q15059 306-415 L345A): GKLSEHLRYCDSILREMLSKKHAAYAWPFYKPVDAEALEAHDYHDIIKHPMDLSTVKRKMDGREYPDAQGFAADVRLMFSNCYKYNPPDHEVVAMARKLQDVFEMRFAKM
Brd2(1) Leu110-Ile, sequence (P25440 74-180 L110I limits assumed): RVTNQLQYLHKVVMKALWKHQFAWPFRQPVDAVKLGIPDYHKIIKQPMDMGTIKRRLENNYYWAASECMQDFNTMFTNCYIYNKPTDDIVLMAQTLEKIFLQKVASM

COC(=O)[C@H](C)[C@@H]1N=C(c2ccc(Cl)cc2)c2cc(OC)ccc2-n2c(C)nnc21 (racemic) [Compound 7, (+−)-methyl (R)-2-((S)-6-(4-chlorophenyl)-8-methoxy-1-methyl-4H-benzo[f][1,2,4]triazolo[4,3-a][1,4]diazepin-4-yl)propanoate]
Thermal stabilisation brd2(1)L110I [1]: 5.7 ± 0.7 °C
ΔTm Brd2(1)*(Leu110-Ile) [1]: 5.7 ± 0.7 K
Thermal stabilisation brd2(1)L110I ([1]; listed as compound 7): 5.7 °C

CC[C@@H](C(=O)OC)[C@@H]1N=C(c2ccc(Cl)cc2)c2cc(OC)ccc2-n2c(C)nnc21 (racemic) [Compound 11, (+−)-methyl (R)-2-((S)-6-(4-chlorophenyl)-8-methoxy-1-methyl-4H-benzo[f][1,2,4]triazolo[4,3-a][1,4]diazepin-4-yl)butanoate]
ΔH Brd3(1)*(Leu070-Ala) ([2]; ITC 30° C., 1% DMSO): -22 kcal/mol
Selectivity factor Kd WT/Kd Leu/Ala ([2]; brd3(1)L070A vs WT brd2(1)): 244
Selectivity factor Kd WT/Kd Leu/Ala ([2]; brd3(1)L070A vs WT brd2(2)): 469
Selectivity factor Kd WT/Kd Leu/Ala ([2]; brd3(1)L070A vs WT brd3(1)): 190
Selectivity factor Kd WT/Kd Leu/Ala ([2]; brd3(1)L070A vs WT brd3(2)): 202
Selectivity factor Kd WT/Kd Leu/Ala ([2]; brd3(1)L070A vs WT brd4(1)): 346
Selectivity factor Kd WT/Kd Leu/Ala ([2]; brd3(1)L070A vs WT brd4(2)): 273
Selectivity factor Kd WT/Kd Leu/Ala ([2]; brd3(1)L070A vs WT brdt(1)): 233
Selectivity factor Kd WT/Kd Leu/Ala ([2]; brd3(1)L070A vs WT brdt(2)): 332
Selectivity factor Kd WT/Kd Leu/Ala ([3]; brd3(2)L344A vs WT brd2(1)): 135
Selectivity factor Kd WT/Kd Leu/Ala ([3]; brd3(2)L344A vs WT brd2(2)): 261
Selectivity factor Kd WT/Kd Leu/Ala ([3]; brd3(2)L344A vs WT brd3(1)): 106
Selectivity factor Kd WT/Kd Leu/Ala ([3]; brd3(2)L344A vs WT brd3(2)): 112
Selectivity factor Kd WT/Kd Leu/Ala ([3]; brd3(2)L344A vs WT brd4(1)): 192
Selectivity factor Kd WT/Kd Leu/Ala ([3]; brd3(2)L344A vs WT brd4(2)): 152
Selectivity factor Kd WT/Kd Leu/Ala ([3]; brd3(2)L344A vs WT brdt(1)): 130
Selectivity factor Kd WT/Kd Leu/Ala ([3]; brd3(2)L344A vs WT brdt(2)): 185
Selectivity factor Kd WT/Kd Leu/Ala ([4]; brdt(2)L306A vs WT brd2(1)): 63
Selectivity factor Kd WT/Kd Leu/Ala ([4]; brdt(2)L306A vs WT brd2(2)): 122
Selectivity factor Kd WT/Kd Leu/Ala ([4]; brdt(2)L306A vs WT brd3(1)): 49
Selectivity factor Kd WT/Kd Leu/Ala ([4]; brdt(2)L306A vs WT brd3(2)): 52
Selectivity factor Kd WT/Kd Leu/Ala ([4]; brdt(2)L306A vs WT brd4(1)): 90
Selectivity factor Kd WT/Kd Leu/Ala ([4]; brdt(2)L306A vs WT brd4(2)): 71
Selectivity factor Kd WT/Kd Leu/Ala ([4]; brdt(2)L306A vs WT brdt(1)): 60
Selectivity factor Kd WT/Kd Leu/Ala ([4]; brdt(2)L306A vs WT brdt(2)): 86
Selectivity factor Kd WT/Kd Leu/Ala ([5]; brd4(1)L094A vs WT brd2(1)): 206
Selectivity factor Kd WT/Kd Leu/Ala ([5]; brd4(1)L094A vs WT brd2(2)): 396
Selectivity factor Kd WT/Kd Leu/Ala ([5]; brd4(1)L094A vs WT brd3(1)): 160
Selectivity factor Kd WT/Kd Leu/Ala ([5]; brd4(1)L094A vs WT brd3(2)): 170
Selectivity factor Kd WT/Kd Leu/Ala ([5]; brd4(1)L094A vs WT brd4(1)): 292
Selectivity factor Kd WT/Kd Leu/Ala ([5]; brd4(1)L094A vs WT brd4(2)): 231
Selectivity factor Kd WT/Kd Leu/Ala ([5]; brd4(1)L094A vs WT brdt(1)): 197
Selectivity factor Kd WT/Kd Leu/Ala ([5]; brd4(1)L094A vs WT brdt(2)): 281
